The source made the active and inactive calls. No cut-off for these calls is given here.
Experiments:
[1] = biological target: Sigma non-opioid intracellular receptor 1 (Cavia porcellus, UniProt Q60492); assay type: cell membranes, Brain, Membrane;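 note: radioligand displacement of [3H]-(+)-pentazocine binding to sigma1 receptor in guinea pig brain membranes, read by scintillation counting after a 120 min incubation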
Description: Displacement of [3H]-(+)-pentazocine from sigma1 receptor in guinea pig brain membrane measured after 120 mins by scintillation counting method

Cholinesterase = Cholinesterase (Homo sapiens, UniProt P06276); assay: Inhibition of human recombinant BuChe using butyrylthiocholine iodide as substrate incubated for 10 mins by DTNB reagent based Ellman's method
Chain of Cholinesterase (P06276 whole entry): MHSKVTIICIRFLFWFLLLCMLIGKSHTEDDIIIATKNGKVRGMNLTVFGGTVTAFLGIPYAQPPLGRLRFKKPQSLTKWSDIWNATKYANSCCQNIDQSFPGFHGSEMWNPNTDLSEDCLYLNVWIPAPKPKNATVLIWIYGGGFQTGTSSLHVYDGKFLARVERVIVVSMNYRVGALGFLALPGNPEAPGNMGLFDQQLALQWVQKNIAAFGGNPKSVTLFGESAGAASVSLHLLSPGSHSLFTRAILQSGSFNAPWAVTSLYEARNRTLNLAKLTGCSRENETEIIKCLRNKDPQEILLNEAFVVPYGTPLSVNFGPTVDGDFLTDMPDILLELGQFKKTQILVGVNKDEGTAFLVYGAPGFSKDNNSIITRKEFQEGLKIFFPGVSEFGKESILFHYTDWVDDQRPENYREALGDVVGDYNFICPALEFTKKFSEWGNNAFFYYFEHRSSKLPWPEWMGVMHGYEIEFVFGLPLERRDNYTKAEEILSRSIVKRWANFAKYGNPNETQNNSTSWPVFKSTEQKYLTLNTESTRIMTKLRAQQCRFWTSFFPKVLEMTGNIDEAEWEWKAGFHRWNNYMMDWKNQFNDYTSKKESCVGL

[2] = biological target: T1, Sigma intracellular receptor 2 (Rattus norvegicus, UniProt Q5U3Y7); assay: Displacement of [3H]DTG from sigma 2 receptor in rat liver membranes measured after 120 mins by scintillation counting method; assay type: cell membranes, Membrane
T1 sequence (Q5U3Y7 whole entry): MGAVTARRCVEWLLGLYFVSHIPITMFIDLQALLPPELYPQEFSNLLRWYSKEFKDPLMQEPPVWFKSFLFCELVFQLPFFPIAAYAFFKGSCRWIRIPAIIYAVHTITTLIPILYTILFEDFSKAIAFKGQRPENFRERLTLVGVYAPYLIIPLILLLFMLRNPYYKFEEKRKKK

[3] = biological target: Glutamate receptor ionotropic, NMDA 2B (Homo sapiens, UniProt Q13224); assay: Displacement of [3H]ifenprodil from recombinant human GluN2B NMDA receptor (unknown origin) expressed in dexamethasone-induced mouse L-M(TK-) cell after 120 mins by microbeta scintillation counting method; assay type: cell-based
Chain of Glutamate receptor ionotropic, NMDA 2B (Q13224 whole entry): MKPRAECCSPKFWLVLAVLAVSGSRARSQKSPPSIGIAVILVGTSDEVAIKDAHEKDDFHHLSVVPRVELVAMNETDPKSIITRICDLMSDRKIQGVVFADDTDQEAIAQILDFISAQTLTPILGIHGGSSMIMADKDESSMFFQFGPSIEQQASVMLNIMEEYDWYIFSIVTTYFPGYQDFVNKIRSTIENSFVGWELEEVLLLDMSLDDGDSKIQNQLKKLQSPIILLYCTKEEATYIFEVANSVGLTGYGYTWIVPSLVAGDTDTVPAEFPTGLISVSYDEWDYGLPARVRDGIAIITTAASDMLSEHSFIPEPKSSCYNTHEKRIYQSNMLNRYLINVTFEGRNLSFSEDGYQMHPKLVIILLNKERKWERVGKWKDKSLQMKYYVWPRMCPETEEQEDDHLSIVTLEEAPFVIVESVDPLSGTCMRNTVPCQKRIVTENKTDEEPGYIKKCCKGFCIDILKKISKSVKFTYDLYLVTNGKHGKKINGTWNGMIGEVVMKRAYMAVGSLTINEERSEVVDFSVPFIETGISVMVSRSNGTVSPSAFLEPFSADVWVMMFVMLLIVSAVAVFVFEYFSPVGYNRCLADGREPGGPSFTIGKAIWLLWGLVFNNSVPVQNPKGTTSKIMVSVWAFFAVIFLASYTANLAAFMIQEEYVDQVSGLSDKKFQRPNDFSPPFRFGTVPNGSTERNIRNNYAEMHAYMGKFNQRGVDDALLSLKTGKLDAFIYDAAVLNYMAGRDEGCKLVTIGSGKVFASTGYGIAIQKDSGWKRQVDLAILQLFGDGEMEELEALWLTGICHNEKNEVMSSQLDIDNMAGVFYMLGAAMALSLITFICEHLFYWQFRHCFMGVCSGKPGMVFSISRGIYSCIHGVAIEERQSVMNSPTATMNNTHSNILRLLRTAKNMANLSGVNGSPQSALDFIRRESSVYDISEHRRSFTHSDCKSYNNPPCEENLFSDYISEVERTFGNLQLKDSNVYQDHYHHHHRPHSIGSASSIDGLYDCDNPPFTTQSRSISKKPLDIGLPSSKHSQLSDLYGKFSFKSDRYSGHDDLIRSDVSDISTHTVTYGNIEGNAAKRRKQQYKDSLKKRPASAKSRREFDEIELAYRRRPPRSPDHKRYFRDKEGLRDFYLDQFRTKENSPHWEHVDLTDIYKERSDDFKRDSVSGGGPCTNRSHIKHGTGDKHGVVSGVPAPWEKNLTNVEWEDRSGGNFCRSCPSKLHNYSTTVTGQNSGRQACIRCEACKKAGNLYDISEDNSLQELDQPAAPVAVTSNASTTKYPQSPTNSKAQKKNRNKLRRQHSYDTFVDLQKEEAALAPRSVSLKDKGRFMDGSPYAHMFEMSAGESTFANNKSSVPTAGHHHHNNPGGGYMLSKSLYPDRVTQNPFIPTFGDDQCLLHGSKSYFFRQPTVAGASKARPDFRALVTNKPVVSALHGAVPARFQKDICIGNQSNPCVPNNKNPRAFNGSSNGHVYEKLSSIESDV

Acetylcholinesterase = Acetylcholinesterase (Homo sapiens, UniProt P22303); assay: Inhibition of human recombinant AChe using acetylthiocholine iodide as substrate incubated for 10 mins by DTNB reagent based Ellman's method
Chain of Acetylcholinesterase (P22303 whole entry): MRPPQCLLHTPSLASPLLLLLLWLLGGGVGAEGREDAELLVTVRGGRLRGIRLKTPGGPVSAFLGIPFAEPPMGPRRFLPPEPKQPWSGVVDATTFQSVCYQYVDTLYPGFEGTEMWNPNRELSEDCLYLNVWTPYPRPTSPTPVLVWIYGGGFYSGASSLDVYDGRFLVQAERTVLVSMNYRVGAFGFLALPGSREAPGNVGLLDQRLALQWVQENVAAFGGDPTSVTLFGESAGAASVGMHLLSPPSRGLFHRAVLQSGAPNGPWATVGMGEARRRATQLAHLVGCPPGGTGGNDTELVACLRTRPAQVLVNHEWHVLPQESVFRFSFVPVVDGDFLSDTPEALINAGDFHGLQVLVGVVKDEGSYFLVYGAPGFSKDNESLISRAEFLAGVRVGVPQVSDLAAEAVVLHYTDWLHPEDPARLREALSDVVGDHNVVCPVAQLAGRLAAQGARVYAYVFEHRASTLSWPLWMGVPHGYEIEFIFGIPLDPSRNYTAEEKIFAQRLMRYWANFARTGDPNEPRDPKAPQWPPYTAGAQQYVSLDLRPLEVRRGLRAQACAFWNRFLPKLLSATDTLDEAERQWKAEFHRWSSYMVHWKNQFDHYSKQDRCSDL

Danio rerio [4] = species: Danio rerio; assay: Neuroprotective activity against Abeta42 induced zebrafish AD model assessed as reversal of reduction in synaptic integrity at 10 uM measured after 5 days; assay type: functional, organism-based; settings: time 5.0 day
[5] = Hepatotoxicity in […] cells assessed as reduction in cell viability at 10 to 80 uM measured after 24 hrs by CTG- luminescence assay; assay type: toxicity, cell-based; settings: human
[6] = Selectivity index, ratio of Ki for displacement of [3H]DTG from sigma 2 receptor in rat liver membranes to Ki for displacement of [3H]-(+)-pentazocine from sigma1 receptor in guinea pig brain membrane; assay type: cell membranes
SH-SY5Y [7] = assay: Glio-protective activity in Abeta42 induced stress human SH-SY5Y cells measured after 72 hrs by CTG luminescence assay; assay type: functional, cell-based
SH-SY5Y [8] = assay: Glio-protective activity in H2O2 induced human SH-SY5Y cells measured after 48 hrs by MTT assay; assay type: functional, cell-based
Danio rerio [9] = species: Danio rerio; assay: Neuroprotective activity against zebrafish AD model assessed as reversal of reduction in synaptic integrity at 10 uM measured after 5 days in presence of Abeta42 relative to control; assay type: functional; parameters: scale not given: the % may be the effect or the level left; settings: time 5 day
PC-12 [10] = assay: Neuroprotective activity in […] PC-12 cells assessed as induction of NGF-mediated neurite sprouting measured after 4 days by measuring fold change; assay type: functional, Rattus norvegicus; settings: time 4 day
Danio rerio [11] = species: Danio rerio; assay: Neuroprotective activity against zebrafish AD model assessed as reversal of reduction in synaptic integrity at 10 uM measured after 5 days relative to control; assay type: functional; parameters: scale not given: the % may be the effect or the level left; settings: time 5 day
SH-SY5Y [12] = assay: Neuroprotective activity in H2O2 induced stress human SH-SY5Y cell model measured after 48 hrs by MTT assay; assay type: functional, cell-based
SH-SY5Y [13] = assay: Neuroprotective activity in Abeta42 induced stress human SH-SY5Y cell model measured after 72 hrs by CTG luminescence assay; assay type: functional, cell-based
[14] = Selectivity index, ratio of Ki for displacement of [3H]-(+)-pentazocine from sigma1 receptor in guinea pig brain membrane to Ki for displacement of [3H]DTG from sigma 2 receptor in rat liver membranes; assay type: cell membranes
P2X purinoceptor 7 = biological target: T2, P2X purinoceptor 7 (Homo sapiens, UniProt Q99572); assay: Antagonist activity at human P2X7 receptor expressed in HEK293 cells assessed as reduction in YO-PRO-1 iodide dye uptake preincubated for 30 mins followed by YO-PRO-1 iodide addition and measured after 120 mins by fluorescence plate reader analysis; assay type: cell-based
T2 sequence (Q99572 whole entry): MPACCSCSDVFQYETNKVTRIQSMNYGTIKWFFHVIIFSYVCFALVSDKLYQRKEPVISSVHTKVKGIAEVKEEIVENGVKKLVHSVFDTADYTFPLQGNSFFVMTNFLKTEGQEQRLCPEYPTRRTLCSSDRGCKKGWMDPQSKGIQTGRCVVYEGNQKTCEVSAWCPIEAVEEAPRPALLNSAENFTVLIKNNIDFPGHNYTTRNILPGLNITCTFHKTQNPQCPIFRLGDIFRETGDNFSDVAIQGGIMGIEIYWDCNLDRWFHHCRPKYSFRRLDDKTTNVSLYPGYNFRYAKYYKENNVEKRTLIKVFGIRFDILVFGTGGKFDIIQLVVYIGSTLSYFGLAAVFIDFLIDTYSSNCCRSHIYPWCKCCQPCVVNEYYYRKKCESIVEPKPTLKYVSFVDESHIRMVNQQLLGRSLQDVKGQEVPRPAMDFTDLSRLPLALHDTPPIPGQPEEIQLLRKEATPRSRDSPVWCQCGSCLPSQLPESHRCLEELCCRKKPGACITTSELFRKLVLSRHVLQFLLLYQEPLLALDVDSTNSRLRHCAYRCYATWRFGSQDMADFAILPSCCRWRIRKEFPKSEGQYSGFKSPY

Danio rerio [15] = species: Danio rerio; assay: Anti-neuroinflammatory activity in Abeta42 induced zebrafish AD model assessed as reduction in number of activated microglia relative to control; assay type: functional; parameters: scale not given: the % may be the effect or the level left
PC-12 [16] = assay: Neuroprotective activity in […] PC-12 cells assessed as induction of NGF-mediated neurite outgrowth measured after 4 days by measuring fold change; assay type: functional, Rattus norvegicus; settings: time 4 day

Chain of Sigma non-opioid intracellular receptor 1 (Q60492 whole entry): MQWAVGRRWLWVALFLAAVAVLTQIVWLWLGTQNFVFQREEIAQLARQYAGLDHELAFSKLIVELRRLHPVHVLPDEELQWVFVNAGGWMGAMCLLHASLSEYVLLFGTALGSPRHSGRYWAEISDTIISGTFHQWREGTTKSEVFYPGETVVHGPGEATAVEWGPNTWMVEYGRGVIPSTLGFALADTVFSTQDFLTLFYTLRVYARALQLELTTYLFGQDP

## Cc1cccc2sc(NC(=O)CCN3CCN(Cc4ccc(C(C)(C)C)cc4)CC3)nc12
[1]
  Ki: 238 nM
Cholinesterase
  IC50: 9320 nM
[2]
  Ki: 238 nM
[3]
  Ki: > 1000 nM
Acetylcholinesterase
  IC50: 40000 nM

## Cc1cccc2sc(NC(=O)CCN3CCN(C4CCCCC4)CC3)nc12
Danio rerio [4]
  Activity: Active
[5]
  IC50 at 24 h: 47100 nM
[1]
  Ki: 24 nM
Cholinesterase
  IC50: 3190 nM
[2]
  Ki: 233 nM
[3]
  Ki: 213 nM
[6]
  Ratio Ki: 9.71
SH-SY5Y [7]
  Activity: Active
Acetylcholinesterase
  IC50: 10900 nM
SH-SY5Y [8]
  Activity: Active

## CCOCCN1CCN(CCC(=O)Nc2nc3c(C)cccc3s2)CC1
[1]
  Ki: 575 nM
Cholinesterase
  IC50: 39000 nM
[2]
  Ki: 1600 nM
[3]
  Ki: > 1000 nM
[6]
  Ratio Ki: 2.78
Acetylcholinesterase
  IC50: 20100 nM

## CCN1CCN(CCC(=O)Nc2nc3c(C)cccc3s2)CC1
[1]
  Ki: 543 nM
Cholinesterase
  IC50: > 40000 nM
[2]
  Ki: 1200 nM
[3]
  Ki: > 1000 nM
[6]
  Ratio Ki: 2.21
Acetylcholinesterase
  IC50: 20600 nM

## Cc1cccc2sc(NC(=O)CCN3CCN(Cc4cc(F)ccc4F)CC3)nc12
[1]
  Ki: 1000 nM
Cholinesterase
  IC50: 7660 nM
[2]
  Ki: > 1000 nM
[3]
  Ki: > 1000 nM
Acetylcholinesterase
  IC50: 12600 nM

## Cc1cccc2sc(NC(=O)CCN3CCN(CCN(C(C)C)C(C)C)CC3)nc12
Danio rerio [4]
  Activity: Active
Danio rerio [9]
  Activity: 37.1%
PC-12 [10]
  fold change (FC): 3.7
[1]
  Ki: 809 nM
Cholinesterase
  IC50: > 40000 nM
[2]
  Ki: 121 nM
[3]
  Ki: 202 nM
Danio rerio [11]
  Activity: 15.1%
SH-SY5Y [12]
  Activity: Active
Acetylcholinesterase
  IC50: 240 nM
SH-SY5Y [13]
  Activity: Active
[14]
  Ratio Ki: 6.68

## Cc1cccc2sc(NC(=O)CCN3CCN(c4ncccn4)CC3)nc12
[1]
  Ki: 505 nM
Cholinesterase
  IC50: > 40000 nM
[2]
  Ki: > 1000 nM
[3]
  Ki: > 1000 nM
P2X purinoceptor 7
  IC50: 1330 nM
[6]
  Ratio Ki: > 1.98
Acetylcholinesterase
  IC50: 30000 nM

## CC(=O)c1ccc(N2CCN(CCC(=O)Nc3nc4c(C)cccc4s3)CC2)cc1
[1]
  Ki: 1000 nM
Cholinesterase
  IC50: 3040 nM
[2]
  Ki: > 1000 nM
[3]
  Ki: 187 nM
Acetylcholinesterase
  IC50: 3820 nM

## Cc1cccc2sc(NC(=O)CCN3CCN(C4CCN(C)CC4)CC3)nc12
[1]
  Ki: 6000 nM
Cholinesterase
  IC50: > 40000 nM
[2]
  Ki: 3600 nM
[3]
  Ki: > 1000 nM
Acetylcholinesterase
  IC50: 10500 nM
[14]
  Ratio Ki: 1.66

## Cc1cccc2sc(NC(=O)CCN3CCN(Cc4ccccc4F)CC3)nc12
[1]
  Ki: 1700 nM
Cholinesterase
  IC50: 2900 nM
[2]
  Ki: > 1000 nM
[3]
  Ki: > 1000 nM
Acetylcholinesterase
  IC50: 5220 nM

## Cc1cccc2sc(NC(=O)CCN3CCN(CCN(C)C)CC3)nc12
[1]
  Ki: 1000 nM
Cholinesterase
  IC50: > 40000 nM
[2]
  Ki: > 1000 nM
[3]
  Ki: > 1000 nM
P2X purinoceptor 7
  IC50: 2150 nM
Acetylcholinesterase
  IC50: 480 nM

## COc1cc2c(cc1OC)C(=O)C(CC1CCN(Cc3ccccc3)CC1)C2 (configuration not stated) [DONEPEZIL]
Danio rerio [15]
  Activity: 4.3%

## Cc1ccccc1N1CCN(CCC(=O)Nc2nc3c(C)cccc3s2)CC1
[1]
  Ki: 1000 nM
Cholinesterase
  IC50: 8630 nM
[2]
  Ki: > 1000 nM
[3]
  Ki: > 1000 nM
Acetylcholinesterase
  IC50: > 40000 nM

## Cc1cccc2sc(NC(=O)CCN3CCN(C(C)C)CC3)nc12
[1]
  Ki: 1300 nM
Cholinesterase
  IC50: 14400 nM
[2]
  Ki: 1800 nM
[3]
  Ki: > 1000 nM
[6]
  Ratio Ki: 1.38
Acetylcholinesterase
  IC50: 2750 nM

## Cc1cccc2sc(NC(=O)CCN3CCN(C(C)(C)C)CC3)nc12
[1]
  Ki: 147 nM
Cholinesterase
  IC50: > 40000 nM
[2]
  Ki: 200 nM
[3]
  Ki: 476 nM
[6]
  Ratio Ki: 1.36
Acetylcholinesterase
  IC50: 810 nM

## Cc1cccc2sc(NC(=O)CCN3CCN(Cc4cccc5ccccc45)CC3)nc12
[1]
  Ki: 1000 nM
Cholinesterase
  IC50: 32900 nM
[2]
  Ki: > 1000 nM
[3]
  Ki: > 1000 nM
Acetylcholinesterase
  IC50: 19300 nM

## CCCCCCN1CCN(CCC(=O)Nc2nc3c(C)cccc3s2)CC1
[1]
  Ki: 238 nM
Cholinesterase
  IC50: 29300 nM
[2]
  Ki: 158 nM
[3]
  Ki: 115 nM
SH-SY5Y [7]
  Activity: Active
Acetylcholinesterase
  IC50: > 40000 nM
SH-SY5Y [8]
  Activity: Active
[14]
  Ratio Ki: 1.5

## Cc1cccc2sc(NC(=O)CCN3CCN(CC4CCCO4)CC3)nc12 (racemic)
Danio rerio [4]
  Activity: Active
[5]
  IC50 at 24 h: 46300 nM
[1]
  Ki: 109 nM
Cholinesterase
  IC50: 12800 nM
[2]
  Ki: 5000 nM
[3]
  Ki: 457 nM
SH-SY5Y [12]
  Activity: Active
PC-12 [16]
  fold change (FC): 2.4
[6]
  Ratio Ki: 45.9
Acetylcholinesterase
  IC50: 7910 nM
SH-SY5Y [13]
  Activity: Active

## Cc1cccc2sc(NC(=O)CCN3CCN(CC4CCCCC4)CC3)nc12
Danio rerio [4]
  Activity: Active
[5]
  IC50 at 24 h: 30700 nM
[1]
  Ki: 35 nM
Cholinesterase
  IC50: 7650 nM
[2]
  Ki: 519 nM
[3]
  Ki: 60 nM
SH-SY5Y [12]
  Activity: Active
[6]
  Ratio Ki: 14.8
Acetylcholinesterase
  IC50: 340 nM
SH-SY5Y [13]
  Activity: Active

## CCCCN1CCN(CCC(=O)Nc2nc3c(C)cccc3s2)CC1
[1]
  Ki: 204 nM
Cholinesterase
  IC50: 30100 nM
[2]
  Ki: 1200 nM
[3]
  Ki: 229 nM
[6]
  Ratio Ki: 5.88
Acetylcholinesterase
  IC50: > 40000 nM

## Cc1cccc2sc(NC(=O)CCN3CCN(c4ccccn4)CC3)nc12
[1]
  Ki: 1000 nM
Cholinesterase
  IC50: > 40000 nM
[2]
  Ki: > 1000 nM
[3]
  Ki: > 1000 nM
P2X purinoceptor 7
  IC50: 1400 nM
Acetylcholinesterase
  IC50: 17200 nM
